Results: the supplement of paper PMC6045584
± gives the standard deviation of the averaged measurements.

How the values were obtained:
[1] = compound: C[C@@H](Oc1cc(-c2cnn(C3CCNCC3)c2)cnc1N)c1c(Cl)ccc(F)c1Cl; experiment: surviving fraction relative to DMSO-only wells; higher = less growth inhibition; conditions: exposure time: 5 days
Summary of the method: (§1)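 Viability was scored with CellTiter-Glo luminescence and normalised to the median of DMSO-only wells as surviving fraction. Beforehand, log-phase tumour cell lines were seeded at 250–500 cells per well in 384-well plates, allowed 24 hours, and exposed continuously for five days to inhibitors at 0.5, 1, 5, 10, 50, 100, 500 and 1000 nM. Only lines whose three screens gave replicate Pearson r >0.7 and median Z' >0.3 were kept.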

[2] = compound: CNC(=O)c1cc(Oc2ccc(NC(=O)Nc3ccc(Cl)c(C(F)(F)F)c3)cc2)ccn1 [SORAFENIB]; experiment: as above; conditions: exposure time: 5 days
Summary of the method: as §1

| Test System | surviving fraction ([1]; 0.5 nM) | surviving fraction ([1]; 1 nM) | surviving fraction ([1]; 10 nM) | surviving fraction ([1]; 50 nM) | surviving fraction ([1]; 100 nM) | surviving fraction ([1]; 500 nM) | surviving fraction ([1]; 1000 nM) | surviving fraction ([2]; 0.5 nM) | surviving fraction ([2]; 1 nM) | surviving fraction ([2]; 5 nM) | surviving fraction ([2]; 10 nM) | surviving fraction ([2]; 50 nM) | surviving fraction ([2]; 100 nM) | surviving fraction ([2]; 1000 nM) | surviving fraction ([1]; 5 nM) | surviving fraction ([2]; 500 nM) |
| --- | --- | --- | --- | --- | --- | --- | --- | --- | --- | --- | --- | --- | --- | --- | --- | --- |
| JURKAT HAEMATOPOIETIC AND LYMPHOID TISSUE | 0.993 ± 0.024 | 0.993 ± 0.029 | 0.98 ± 0.013 | 0.984 ± 0.021 | 0.943 ± 0.019 | 0.235 ± 0.013 | 0.195 ± 0.013 | 1.106 ± 0.0035 | 1.1 ± 0.026 | 1.11 ± 0.039 | 1.11 ± 0.037 | 1.08 ± 0.023 | 1.06 ± 0.029 | 0.863 ± 0.012 |  |  |
| KPD BONE | 0.886 ± 0.043 | 0.87 ± 0.013 |  | 0.987 ± 0.083 |  | 0.518 ± 0.011 | 0.156 ± 0.012 | 0.922 ± 0.019 |  | 1.03 ± 0.032 |  | 0.989 ± 0.075 |  |  | 0.974 ± 0.039 |  |
| LM7 BONE | 0.745 ± 0.03 | 0.765 ± 0.027 | 0.782 ± 0.075 |  | 0.859 ± 0.081 | 0.366 ± 0.031 | 0.168 ± 0.0087 | 0.938 ± 0.057 | 0.97 ± 0.048 |  | 1.01 ± 0.066 | 1.11 ± 0.14 | 1.04 ± 0.054 | 1.05 ± 0.033 | 0.779 ± 0.026 |  |
| LNCAP PROSTATE | 1.07 ± 0.056 | 1.16 ± 0.13 | 1.13 ± 0.12 | 1 ± 0.045 | 0.801 ± 0.17 | 0.528 ± 0.075 | 0.464 ± 0.031 | 1.01 ± 0.084 |  | 1 ± 0.082 | 1.06 ± 0.08 | 0.902 ± 0.23 |  | 0.853 ± 0.17 | 1.15 ± 0.034 | 0.887 ± 0.12 |
| MCF7 BREAST | 0.826 ± 0.063 | 0.818 ± 0.027 | 0.802 ± 0.03 | 0.89 ± 0.021 | 0.834 ± 0.034 | 0.755 ± 0.011 | 0.511 ± 0.017 | 0.866 ± 0.025 | 0.86 ± 0.068 | 0.904 ± 0.021 | 0.851 ± 0.022 | 0.928 ± 0.047 | 0.939 ± 0.034 | 0.873 ± 0.025 | 0.827 ± 0.046 | 0.995 ± 0.074 |
| MDAMB134 BREAST | 0.712 ± 0.097 | 0.718 ± 0.13 | 0.667 ± 0.0014 | 0.854 ± 0.029 | 0.767 ± 0.038 | 0.758 ± 0.097 | 0.709 ± 0.1 | 1.04 ± 0.067 | 1.26 ± 0.12 | 1.06 ± 0.033 | 1.02 ± 0.031 | 1.06 ± 0.053 | 1.14 ± 0.091 |  | 0.624 ± 0.11 | 1.21 ± 0.18 |
| MDAMB157 BREAST |  | 0.818 ± 0.016 | 0.95 ± 0.029 | 0.877 ± 0.038 | 0.836 ± 0.097 | 0.451 ± 0.017 | 0.569 ± 0.071 | 0.962 ± 0.016 | 0.909 ± 0.064 | 0.984 ± 0.03 | 0.923 ± 0.046 |  | 1.01 ± 0.059 |  | 0.967 ± 0.042 | 0.963 ± 0.036 |
| MDAMB231 BREAST |  | 0.939 ± 0.017 | 0.939 ± 0.025 | 0.955 ± 0.013 | 0.8698 ± 0.0057 | 0.437 ± 0.014 | 0.303 ± 0.012 | 0.99 ± 0.025 | 0.995 ± 0.014 | 0.924 ± 0.036 | 0.905 ± 0.014 | 0.887 ± 0.014 | 0.936 ± 0.05 | 0.929 ± 0.016 | 0.957 ± 0.022 |  |
| MDAMB361 BREAST | 0.779 ± 0.017 | 0.768 ± 0.029 |  |  | 0.858 ± 0.026 | 1.04 ± 0.053 | 1.02 ± 0.047 | 0.813 ± 0.078 | 0.862 ± 0.089 | 0.904 ± 0.029 |  | 0.909 ± 0.034 | 0.837 ± 0.03 | 0.84 ± 0.098 | 0.807 ± 0.043 | 0.796 ± 0.049 |
| MDAMB436 BREAST | 0.833 ± 0.046 | 0.828 ± 0.06 | 0.822 ± 0.046 | 0.996 ± 0.014 | 0.962 ± 0.067 | 0.872 ± 0.036 | 0.736 ± 0.027 | 0.966 ± 0.04 | 0.992 ± 0.046 | 0.977 ± 0.057 | 0.949 ± 0.085 |  | 0.961 ± 0.043 | 0.855 ± 0.019 | 0.844 ± 0.057 |  |
| MDAMB453 BREAST | 0.994 ± 0.054 |  | 1.03 ± 0.026 | 1.06 ± 0.014 | 1.06 ± 0.05 | 0.771 ± 0.029 | 0.637 ± 0.013 | 1.08 ± 0.064 |  | 1.11 ± 0.074 | 1.09 ± 0.011 | 1.12 ± 0.056 | 1.12 ± 0.091 | 1.04 ± 0.047 | 1.02 ± 0.074 |  |
| MDAMB468 BREAST | 0.845 ± 0.076 |  | 0.9157 ± 0.004 | 0.972 ± 0.066 | 1.05 ± 0.041 | 0.551 ± 0.081 | 0.234 ± 0.019 | 1 ± 0.083 |  | 1.15 ± 0.062 | 1.09 ± 0.072 | 1.28 ± 0.073 | 1.26 ± 0.12 | 1.21 ± 0.051 |  | 1.23 ± 0.029 |
